Series [1] has as its system Plasmodium falciparum. The series is described as follows: Antimalarial activity against blood stage chloroquine-resistant Plasmodium falciparum Dd2 infected in human erythrocytes assessed as inhibition of parasite growth incubated for 72 hrs by SYBR Green I dye based staining analysis. The class given is functional, organism-based. Conditions: Dd2, Erythrocyte.
The nature of series [2]: Selectivity index, ratio of IC50 for cytotoxicity against human KB cells to EC50 for antiplasmodial activity against Plasmodium falciparum W2. Format: toxicity, cell-based. Conditions: read-out: Selectivity Index.
Series [3] concerns Plasmodium falciparum. Put plainly: Antimalarial activity against Plasmodium falciparum W2 assessed as inhibition of parasite growth. The class given is functional, organism-based.
Series [4] in a line: Selectivity index, ratio of MTD for cytotoxicity against human HaCaT cells to EC50 for antimalarial activity against blood stage chloroquine-resistant Plasmodium falciparum Dd2 infected in human erythrocytes. The class given is toxicity, cell-based. Conditions: read-out: Selectivity Index.

Consider 49 compounds from ChEMBL document CHEMBL4725400, “Natural product-inspired aryl isonitriles as a new class of antimalarial compounds against drug-resistant parasites” (Bioorg Med Chem, 2020).

As a reminder, the EC50 is the concentration at which the effect is half-maximal. Consider `[C-]#[N+]c1ccc(/C=C/c2ccccc2)cc1`, for which the EC50 in the series with Plasmodium falciparum [1] is 2.77 µM.

Turning to `[C-]#[N+]c1ccc(/C=C/c2ccnc3ccccc23)cc1`, the concentration giving a half-maximal response (EC50) in the series with Plasmodium falciparum [1] stood at 6.98 µM.

Take `[C-]#[N+]c1ccccc1/C=C/c1ccccn1`: the EC50 in the series with Plasmodium falciparum [1] was determined as 7.53 µM.

Take `[C-]#[N+]c1ccccc1/C=C(\CCC)c1ccccc1`: the 50% effective concentration (EC50) in the series with Plasmodium falciparum [1] was 3.06 µM.

Regarding `[C-]#[N+]c1ccccc1-c1ccccc1`, the EC50 in the series with Plasmodium falciparum [1] stood at 10.8 µM.

For the compound `[C-]#[N+]c1ccc(/C=C/c2ccc(F)cc2)cc1`, the EC50 with Plasmodium falciparum [1] was determined as 4.69 µM.

As for `[C-]#[N+]c1ccccc1/C=C/c1cccc(F)c1`, the EC50 in the series with Plasmodium falciparum [1] came out at 12.4 µM.

As to `[C-]#[N+]c1ccc(/C=C/c2ccc(C(F)(F)F)cc2)cc1`, the EC50 in the series on Plasmodium falciparum [1] turned out to be 2.17 µM.

Turning to `[C-]#[N+]c1ccc(CCc2ccc([N+]#[C-])cc2)cc1`, in the series on Plasmodium falciparum [1], the concentration for a half-maximal effect (EC50) came out at 0.22 µM.

Consider `[C-]#[N+]c1ccc(/C=C/c2ccc3ccccc3n2)cc1`, for which the EC50 in the series with Plasmodium falciparum [1] was found to be 5.25 µM.

Take `[C-]#[N+]c1ccc(/C=C/c2ccco2)cc1`: in the series with Plasmodium falciparum [1], the 50% effective concentration (EC50) stood at 2.66 µM.

Regarding `[C-]#[N+][C@]1(C)[C@H](C)C[C@@H]2C[C@H](C)[C@H]3CC[C@](C)([N+]#[C-])[C@H]4CC[C@H]1[C@@H]2[C@H]34` [DIISOCYANOADOCIANE], the selectivity ratio in series [2] was 1000. The EC50 in the series with Plasmodium falciparum [3] was determined as 0.013 µM.

For `CC/C(=C\c1ccccc1)c1ccccc1`, the EC50 in the series on Plasmodium falciparum [1] is above 100 µM.

Turning to `[C-]#[N+]c1ccc(CCc2ccccc2[N+]#[C-])cc1`, the EC50 in the series with Plasmodium falciparum [1] came out at 0.44 µM.

In the case of `[C-]#[N+]c1ccc(CCc2cccc([N+]#[C-])c2)cc1`, in the series with Plasmodium falciparum [1], the EC50 worked out at 2.75 µM.

On to `[C-]#[N+]c1ccccc1/C=C/c1ccc(F)cc1`, for which, in the series with Plasmodium falciparum [1], the EC50 was 0.56 µM.

Take `[C-]#[N+]c1ccc(/C=C/c2ccc([N+]#[C-])cc2)cc1`: the selectivity ratio in series [4] stood at 4740. Further, the EC50 in the series with Plasmodium falciparum [1] was 0.027 µM.

Take `[C-]#[N+]c1ccccc1C=C(c1ccccc1)c1ccccc1`: in the series on Plasmodium falciparum [1], the EC50 turned out to be 3.62 µM.

Take `[C-]#[N+]c1ccccc1/C=C/c1ccccc1`: the half-maximal effective concentration (EC50) with Plasmodium falciparum [1] was found to be 11.5 µM.

For `[C-]#[N+]c1ccccc1/C=C/c1ccccc1C(F)(F)F`, the concentration giving a half-maximal response (EC50) in the series on Plasmodium falciparum [1] stood at 4.31 µM.

As for `CC1=C[C@]2(CC1)[C@H](C)CC[C@@H](C(C)C)[C@H]2N=C=S`, the EC50 in the series with Plasmodium falciparum [3] was found to be 11.8 µM.

On to `[C-]#[N+]c1cccc(/C=C/c2cccnc2)c1`, for which the EC50 in the series with Plasmodium falciparum [1] was 0.69 µM.

Regarding `[C-]#[N+]c1ccccc1/C=C/c1ccncc1`, the EC50 in the series with Plasmodium falciparum [1] was 3.7 µM.

On to `[C-]#[N+]c1ccccc1/C=C/c1ccc(C(F)(F)F)cc1`, for which, in the series on Plasmodium falciparum [1], the EC50 turned out to be 5.8 µM.

Consider `[C-]#[N+]c1ccc(/C=C/c2cccc([N+]#[C-])c2)cc1`, for which the EC50 in the series with Plasmodium falciparum [1] was 0.266 µM.

Consider `[C-]#[N+]c1ccccc1/C=C(\CC)c1ccccc1`, for which the EC50 in the series with Plasmodium falciparum [1] was 10.6 µM.

For `[C-]#[N+]c1ccccc1/C=C(\CC)c1cccc(C(F)(F)F)c1`, the 50% effective concentration (EC50) in the series with Plasmodium falciparum [1] came to 5.41 µM.

Turning to `[C-]#[N+]c1ccccc1/C=C(\CCCC)c1ccccc1`, in the series on Plasmodium falciparum [1], the EC50 turned out to be 5.25 µM.

As to `[C-]#[N+]c1ccccc1/C=C(\CC)c1ccc(F)cc1`, the EC50 in the series on Plasmodium falciparum [1] turned out to be 9.84 µM.

For `[C-]#[N+]c1ccccc1/C=C/c1cccnc1`, the EC50 in the series on Plasmodium falciparum [1] is 13 µM.

As to `[C-]#[N+]c1ccc(/C=C/c2ccccc2[N+]#[C-])cc1`, the EC50 with Plasmodium falciparum [1] was 0.068 µM.

`[C-]#[N+]c1ccc(/C=C/c2ccc(OC)cc2)cc1`: the 50% effective concentration (EC50) in the series on Plasmodium falciparum [1] worked out at 2.27 µM.

For `[C-]#[N+]c1ccc(/C=C/c2cccc(OC)c2)cc1`, the EC50 with Plasmodium falciparum [1] amounted to 1.01 µM.

Regarding `[C-]#[N+]c1cccc(/C=C/c2ccccn2)c1`, the EC50 in the series on Plasmodium falciparum [1] amounted to 9.73 µM.

As to `[C-]#[N+]c1ccccc1/C=C/c1cccc(OC)c1`, in the series with Plasmodium falciparum [1], the EC50 was found to be 6.45 µM.

As for `[C-]#[N+]c1ccccc1/C=C/c1ccccc1F`, the EC50 in the series with Plasmodium falciparum [1] was 3.68 µM.

Regarding `[C-]#[N+]c1ccc(/C=C/c2ccncc2)cc1`, in series [4], the selectivity ratio is 1450. In addition, the concentration for a half-maximal effect (EC50) in the series with Plasmodium falciparum [1] was 0.088 µM.

As to `[C-]#[N+]c1ccccc1-c1ccc2ccccc2c1`, in the series with Plasmodium falciparum [1], the EC50 stood at 6.21 µM.

`[C-]#[N+][C@@H]1[C@H](C(C)C)CC[C@@H](C)[C@@]12C=C(C)CC2` [AXISONITRILE 3]: the EC50 in the series on Plasmodium falciparum [3] worked out at 0.071 µM.

Regarding `[C-]#[N+]c1ccc(/C=C/c2ccccn2)cc1`, in the series with Plasmodium falciparum [1], the EC50 is 10.3 µM.

Regarding `[C-]#[N+]c1ccccc1/C=C/c1ccccc1OC`, the EC50 in the series with Plasmodium falciparum [1] was 21.6 µM.

Consider `[C-]#[N+]c1ccc(CCc2ccncc2)cc1`, for which, in the series on Plasmodium falciparum [1], the EC50 came to 0.56 µM.

Consider `[C-]#[N+]c1ccccc1/C=C/c1cccc(C(F)(F)F)c1`, for which the EC50 with Plasmodium falciparum [1] is 0.27 µM.

With `[C-]#[N+]c1ccc(/C=C/c2cccnc2)cc1`, the EC50 in the series on Plasmodium falciparum [1] came to 5.18 µM.

For the compound `[C-]#[N+]c1ccc(/C=C/c2cc(OC)cc(OC)c2)cc1`, the EC50 in the series with Plasmodium falciparum [1] is 1.62 µM.

In the case of `[C-]#[N+]c1ccccc1/C=C/c1ccc(OC)cc1`, the EC50 in the series on Plasmodium falciparum [1] worked out at 3.07 µM.

Turning to `[C-]#[N+]c1cccc(/C=C/c2ccccc2)c1`, the EC50 in the series on Plasmodium falciparum [1] came to 5.32 µM.

Regarding `[C-]#[N+]c1ccccc1/C=C(\CC)c1ccc(C(F)(F)F)cc1`, the EC50 in the series with Plasmodium falciparum [1] stood at 7.69 µM.

For `[C-]#[N+]c1ccc(/C=C/c2ccc(Cl)c(Cl)c2)cc1`, the EC50 in the series on Plasmodium falciparum [1] turned out to be 3.21 µM.
